From patent publication US9249129B2, “Morpholino substituted urea derivatives as mTOR inhibitors” (CELLZOME LIMITED, priority 2010, dated 2016)

Tests used:
Assay in all cases: kinobeads assay with mass spectrometry detection of kinases (kinase selectivity profile)
Assay type in all cases: binding
[1] = molecular target: T1, kinases (kinome) (Homo sapiens, UniProt P78368); conditions: CK1g2 (CK1), IPI00297767
T1 construct: determined in kinobeads assays with mass spectrometry detection of kinases as described previously; endogenous in cells; host or cells: cell lysate
T1 sequence (P78368 whole entry): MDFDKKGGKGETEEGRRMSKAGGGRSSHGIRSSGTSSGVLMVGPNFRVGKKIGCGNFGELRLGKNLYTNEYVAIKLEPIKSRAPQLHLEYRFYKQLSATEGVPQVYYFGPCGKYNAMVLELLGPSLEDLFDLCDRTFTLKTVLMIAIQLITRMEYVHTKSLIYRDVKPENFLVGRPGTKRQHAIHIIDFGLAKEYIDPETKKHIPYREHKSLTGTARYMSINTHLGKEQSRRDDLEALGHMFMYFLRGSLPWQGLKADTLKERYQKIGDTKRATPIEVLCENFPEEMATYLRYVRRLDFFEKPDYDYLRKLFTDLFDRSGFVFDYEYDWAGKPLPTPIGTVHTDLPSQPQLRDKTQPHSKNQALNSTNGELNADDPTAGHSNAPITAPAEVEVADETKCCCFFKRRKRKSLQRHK
Text: (§1) The protein kinase complement of the human genome (the kinome) was described previously (Manning et al., 2002. Science 298(5600):1912-1934). Sequence accession numbers are defined by the International Protein Index (IPI) (Kersey et al., 2004. Proteomics 4(7):1985-1988).

[2] = molecular target: T2, kinases (kinome) (Homo sapiens, UniProt Q13873); conditions: BMPR2 (TKL), IPI00783156
T2 construct: determined in kinobeads assays with mass spectrometry detection of kinases as described previously; endogenous in cells; host or cells: cell lysate
T2 sequence (Q13873 27-1038): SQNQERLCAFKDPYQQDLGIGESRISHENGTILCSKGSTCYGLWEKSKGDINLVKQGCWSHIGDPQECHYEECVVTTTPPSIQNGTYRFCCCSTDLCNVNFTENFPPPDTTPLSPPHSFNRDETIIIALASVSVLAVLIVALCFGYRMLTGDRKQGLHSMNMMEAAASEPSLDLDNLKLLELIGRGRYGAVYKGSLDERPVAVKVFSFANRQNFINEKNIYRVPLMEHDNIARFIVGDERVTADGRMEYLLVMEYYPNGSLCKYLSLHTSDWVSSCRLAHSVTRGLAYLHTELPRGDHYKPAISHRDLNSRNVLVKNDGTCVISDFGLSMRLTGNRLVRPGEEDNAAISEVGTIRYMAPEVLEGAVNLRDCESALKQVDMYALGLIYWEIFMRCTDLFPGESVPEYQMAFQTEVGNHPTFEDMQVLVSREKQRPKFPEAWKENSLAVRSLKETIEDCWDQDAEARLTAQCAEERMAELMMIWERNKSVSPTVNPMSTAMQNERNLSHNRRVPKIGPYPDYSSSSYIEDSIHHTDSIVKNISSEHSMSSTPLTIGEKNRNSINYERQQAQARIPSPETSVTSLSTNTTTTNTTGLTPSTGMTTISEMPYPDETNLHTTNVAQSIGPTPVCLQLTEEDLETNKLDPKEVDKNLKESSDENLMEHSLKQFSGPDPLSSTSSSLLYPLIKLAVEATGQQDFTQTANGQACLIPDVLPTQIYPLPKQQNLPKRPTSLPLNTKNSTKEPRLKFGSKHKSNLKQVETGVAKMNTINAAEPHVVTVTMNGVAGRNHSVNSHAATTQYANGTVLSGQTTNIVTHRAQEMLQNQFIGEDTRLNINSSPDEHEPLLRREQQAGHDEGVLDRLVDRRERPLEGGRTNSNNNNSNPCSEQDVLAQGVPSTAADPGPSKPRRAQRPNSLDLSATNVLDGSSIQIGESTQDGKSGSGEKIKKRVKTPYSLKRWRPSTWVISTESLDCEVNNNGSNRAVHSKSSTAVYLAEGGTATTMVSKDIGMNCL
Text: as §1

[3] = molecular target: T3, kinases (kinome) (Homo sapiens, UniProt Q8N752); conditions: CK1a2 (CK1), IPI00167096
T3 construct: determined in kinobeads assays with mass spectrometry detection of kinases as described previously; endogenous in cells; host or cells: cell lysate
T3 sequence (Q8N752 whole entry): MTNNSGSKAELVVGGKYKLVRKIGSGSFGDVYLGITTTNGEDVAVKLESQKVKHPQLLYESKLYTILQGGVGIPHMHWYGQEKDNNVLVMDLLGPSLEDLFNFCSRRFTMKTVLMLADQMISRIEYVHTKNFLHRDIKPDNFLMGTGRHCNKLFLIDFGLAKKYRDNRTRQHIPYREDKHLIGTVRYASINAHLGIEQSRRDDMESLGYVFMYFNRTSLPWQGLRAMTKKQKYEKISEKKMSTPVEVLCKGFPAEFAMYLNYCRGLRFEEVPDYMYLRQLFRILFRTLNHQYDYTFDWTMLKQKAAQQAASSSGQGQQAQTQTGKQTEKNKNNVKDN
Text: as §1

[4] = molecular target: T4, kinases (kinome) (Homo sapiens, UniProt P48426); conditions: PIP5K2A (Lipid Kinase), IPI00009688
T4 construct: determined in kinobeads assays with mass spectrometry detection of kinases as described previously; endogenous in cells; host or cells: cell lysate
T4 sequence (P48426 whole entry): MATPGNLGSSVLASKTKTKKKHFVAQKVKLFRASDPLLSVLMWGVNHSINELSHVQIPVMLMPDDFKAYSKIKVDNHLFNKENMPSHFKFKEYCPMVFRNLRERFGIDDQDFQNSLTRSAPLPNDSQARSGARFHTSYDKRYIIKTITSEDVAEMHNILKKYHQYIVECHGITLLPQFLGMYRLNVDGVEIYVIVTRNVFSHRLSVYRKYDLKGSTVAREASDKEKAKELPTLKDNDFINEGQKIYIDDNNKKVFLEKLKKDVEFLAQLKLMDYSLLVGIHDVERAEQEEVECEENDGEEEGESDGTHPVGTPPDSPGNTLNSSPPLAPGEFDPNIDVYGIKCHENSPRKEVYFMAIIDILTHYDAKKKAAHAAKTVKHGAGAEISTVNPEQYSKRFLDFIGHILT
Text: as §1

| IC50 [1] | IC50 [2] | IC50 [3] | IC50 [4] | SMILES |
| --- | --- | --- | --- | --- |
| > 10 µM |  |  |  | C[C@H]1COCCN1c1nc(-c2ccc(NC(=O)NC3CC3)cc2)cc(-c2cccnc2S(C)(=O)=O)n1 [Example 46, (S)-1-cyclopropyl-3-(4-(2-(3-methylmorpholino)-6-(2-(methylsulfonyl)pyridin-3-yl)pyrimidin-4-yl)phenyl)urea] |
|  | > 10 µM | > 10 µM | > 10 µM | C[C@H]1COCCN1c1nc(-c2ccc(NC(=O)NC3CC3)cc2)cc(-c2cc(F)ccc2S(C)(=O)=O)n1 [Example 40, (S)-1-cyclopropyl-3-(4-(6-(5-fluoro-2-(methylsulfonyl)phenyl)-2-(3-methylmorpholino)pyrimidin-4-yl)phenyl)urea] |
